# Data reported in patent US20250064875A1, “PHARMACEUTICAL COMPOSITION FOR PREVENTING OR TREATING MUSCLE DISEASES” (KOSA BIO INC., priority 2021, published 2025).
# Columns and labels:
# [1] = system: sarcopenia animal model; assay: Sarcopenia animal model, body composition by DXA; format: in vivo, mice; conditions: for lean body weight / BMC / BMD(g/cm^2) / fat / fat(%) / tissue area(cm^2): DXA; for lean body weight: C57BL/6 mice, dexamethasone 20 mg/kg i.p. daily, extract 300 mg/kg or FL 0.5 mg/kg oral daily; for BMC / BMD(g/cm^2) / fat / fat(%) / tissue area(cm^2): same model and doses
# Description: Specifically, male C57BL/6 mice (7 weeks old, Samtako Bio Korea, Korea) were acclimatized, and their body weight (g), lean body weight (g), fat mass (g), and body fat percentage (%) were measured using dual-energy X-ray absorptiometry (DXA). […] A control group consisted of untreated 5 mice (normal mice) at day 0 of treatment. On days 7 and 14 of treatment, the mice were scanned using DXA to measure body weight, lean body weight, fat mass, and body fat percentage; the results are presented in FIG. 14 and Tables 2 and 3.
# [2] = system: sarcopenia animal model; assay: Sarcopenia animal model, excised tissue weights; format: in vivo, mice; conditions: day 14; for Thymus: dexamethasone 20 mg/kg i.p., extract 300 mg/kg or FL 0.5 mg/kg oral daily
# Description: Specifically, male C57BL/6 mice (7 weeks old, Samtako Bio Korea, Korea) were acclimatized, and their body weight (g), lean body weight (g), fat mass (g), and body fat percentage (%) were measured using dual-energy X-ray absorptiometry (DXA). […] A control group consisted of untreated 5 mice (normal mice) at day 0 of treatment.
# [3] = system: C2C12 myoblast cells differentiated to myotubes; assay: Inhibition of myocyte apoptosis: MTT cell viability in dexamethasone-treated myotubes; format: cell-based; conditions: 10 μM dexamethasone, FL, FV, FI 2.5-20 μg/mL or amino acid controls, 24 hours, FIGS. 4-6
# Description: Firstly, C2C12 myoblast cells (from ATCC, USA) were cultured in DMEM supplemented with 10% fetal bovine serum (FBS) and 1% antibiotic-antimycotic at 37° C. under a 5% CO2 atmosphere. Thereafter, the medium was replaced with one containing 2% horse serum (HS) for incubation of additional 72 hours. […] Post-treatment, the cells were observed again under a microscope. The results of the differentiation to myotubes are presented in FIG. 1, and the observations post-dexamethasone treatment in FIG. 2.
# After 24 hours, the culture medium was removed, and MTT reagent (5 mg/mL) was added to each well and incubated for 4 hours. Subsequently, DMSO was added to dissolve any precipitates, and the absorbance was read at 570 nm.
# Apart from FL, which was found in elderberry extracts, fructose-valine (FV) and fructose-isoleucine (FI) conjugates in which the branched-chain amino acid valine or isoleucine is conjugated to the monosaccharide fructose were also tested for inhibition against myocyte apoptosis. Experiments were conducted in the same manner and conditions as in Experiment Example 1-2, except that FL, FV, or FI was used at concentrations of 2.5, 5, 10, or 20 μg/mL instead of elderberry extracts. As controls, amino acids such as leucine, valine, isoleucine, tryptophan, arginine, tyrosine, glycine, lysine, methionine, phenylalanine, or threonine were used. The cell viability calculated from the treatments with FL, FV, or FI are presented in FIG. 4, and results from amino acid treatments in FIGS. 5 and 6.
# [4] = system: TNFα; assay: Inhibition of TNFα expression (qPCR) in dexamethasone-treated myotubes; format: cell-based; conditions: cells treated with FL, FV or FI 2.5-20 μg/mL, FIG. 8
# Description: The cells treated with elderberry extracts as in Experimental Example 1-2 were further treated with trypsin to collect only the cells. After centrifugation of the collected cells at 3,000 rpm for 5 minutes, the supernatant was removed and total RNA was extracted by sequentially treating with RiboEx™ and Hybrid-R™ (GeneAll, Korea). The concentration of the extracted RNA was measured using a Nanodrop, and this RNA was used as a template to synthesize cDNA. The cDNA was synthesized using a mixture of RNA, oligo-(dT) primers, and 2×HyperScript™ RT Master Mix (GeneAll, Korea). Subsequently, real-time PCR (qPCR) was performed using the synthesized cDNA as a template and Power SYBR™ Green PCR Master Mix under standard conditions to confirm the expression of TNFα.
# Cells treated with FL, FV, or FI as in Experimental Example 1-3 were trypsinized to collect only the cells, and the level of TNFα expression was examined using the same conditions and methods as described in Experimental Example 2-1.
# [5] = system: MuRF-1; assay: Inhibition of muscle protein expression (qPCR): MuRF-1; format: cell-based; conditions: cells treated with FL, FV or FI 2.5-20 μg/mL
# Text: (§1) The ability of the elderberry extracts and monosaccharide-BCAA conjugate compounds prepared above to inhibit the expression of muscle proteins was confirmed using the qPCR method. Specifically, muscle RING-finger protein-1 (MuRF-1) and atrogin-1, which are both markers of muscle atrophy, and myostatin, which a negative regulator of skeletal muscle mass, were used as target muscle proteins.
# (§2) Using the cells treated with the hot water extract, 50% ethanol extract, or 100% ethanol extract of elderberry described in Experimental Example 1-2, qPCR was performed as described above.
# (§3) Using the cells treated with FL, FV, or FI as described in Experimental Example 1-3, qPCR was performed as previously outlined.
# [6] = system: atrogin-1; assay: Inhibition of muscle protein expression (qPCR): atrogin-1; format: cell-based; conditions: cells treated with FL, FV or FI 2.5-20 μg/mL
# Text: as §1, §2, §3
# [7] = system: myostatin; assay: Inhibition of muscle protein expression (qPCR): myostatin; format: cell-based; conditions: cells treated with FL, FV or FI 2.5-20 μg/mL
# Text: as §1, §2, §3
# [8] = system: TM3 cell line; assay: Promotion of testosterone secretion (ELISA) in H2O2-treated Leydig cells; format: cell-based; conditions: 500 μM H2O2 6 hours; extract 12.5-100 μg/mL or FL 1.25-10 μg/mL; ELISA of medium; FIG. 9
# Description: First, the TM3 cell line (from ATCC, USA), which is Leydig cells, were cultured using a standard method. The cultured cells were treated with 500 μM of hydrogen peroxide (H2O2) for 6 hours, followed by the addition of either 12.5, 25, 50, or 100 μg/mL of the hot water extract of elderberry or 1.25, 2.5, 5, or 10 μg/mL of FL (fructose-leucine). Subsequently, ELISA was performed using the cultured cell medium to determine the levels of testosterone, and the results are presented in FIG. 9.
# [9] = excised tissue weight, same model and doses
# [10] = result in words, sarcopenia mice, 14 days
SMILES,lean body weight ([1]; Day 0) [g],BMC ([1]; Day 0) [g],BMD(g/cm^2) ([1]; Day 0),fat ([1]; Day 0) [g],fat(%) ([1]; Day 0),tissue area(cm^2) ([1]; Day 0),lean body weight ([1]; Day 7) [g],BMC ([1]; Day 7) [g],BMD(g/cm^2) ([1]; Day 7),fat ([1]; Day 7) [g],fat(%) ([1]; Day 7),tissue area(cm^2) ([1]; Day 7),lean body weight ([1]; Day 14) [g],BMC ([1]; Day 14) [g],BMD(g/cm^2) ([1]; Day 14),cell viability reduced by dexamethasone [3],level of TNFα expression increased by dexamethasone [4],mRNA expression level of MuRF-1 increased by dexamethasone [5],mRNA expression level of atrogin-1 increased by dexamethasone [6],mRNA expression level of myostatin increased by dexamethasone [7],other results
"C[C@@H]1C[C@H]2[C@@H]3CCC4=CC(=O)C=C[C@]4(C)[C@@]3(F)[C@@H](O)C[C@]2(C)[C@@]1(O)C(=O)CO [Dexamethasone, dexamethasone, reference compound]",18.93 ± 1.42,0.23 ± 0.13,0.057 ± 0.012,1.44 ± 0.16,7.1 ± 1.07,13.32 ± 2.03,17.53 ± 1.36,0.16 ± 0.02,0.052 ± 0.004,1.13 ± 0.34,5.99 ± 1.53,12.41 ± 1.31,17.47 ± 0.29,0.16 ± 0.01,0.057 ± 0.004,–,–,–,–,–,"fat ([1]; Day 14): 1.56 ± 0.34 g; fat(%) ([1]; Day 14): 8.17 ± 1.58%; tissue area(cm^2) ([1]; Day 14): 13.97 ± 0.51 cm^2; Thymus ([2]; excised tissue weight): 0.009 ± 0.004 g; Muscle [2, 9]: 0.501 ± 0.064 g; Spleen [2, 9]: 0.026 ± 0.01 g"
"CC[C@H](C)[C@H](NCC1(O)OC[C@@H](O)[C@@H](O)[C@@H]1O)C(=O)O (stereo partly drawn) [FI, fructose-isoleucine]",–,–,–,–,–,–,–,–,–,–,–,–,–,–,–,significantly restored,significantly suppressed,significantly decreased,significantly decreased,significantly decreased,–
"CC(C)CC(NCC1(O)OCC(O)C(O)C1O)C(=O)O (stereo not drawn) [FL, fructose-leucine]",18.31 ± 1.43,0.19 ± 0.04,0.053 ± 0.004,1.27 ± 0.25,6.49 ± 1.03,13.13 ± 1.08,18.05 ± 0.44,0.20 ± 0.03,0.059 ± 0.009,1.43 ± 0.53,7.31 ± 2.47,13.83 ± 0.53,18.34 ± 0.56,0.19 ± 0.04,0.056 ± 0.006,significantly restored,significantly suppressed,significantly decreased,significantly decreased,significantly decreased,"concentration of testosterone suppressed by hydrogen peroxide [8]: significantly restored; fat ([1]; Day 14): 1.29 ± 0.19 g; fat(%) ([1]; Day 14): 6.57 ± 0.76%; tissue area(cm^2) ([1]; Day 14): 13.66 ± 0.92 cm^2; body weight of the mice [1, 10]: restored; lean body weight of the mice [1, 10]: restored; tissue areas of the mice [1, 10]: restored; Thymus ([2]; excised tissue weight): 0.009 ± 0.002 g; Liver [2, 9]: 1.375 ± 0.117 g; Muscle [2, 9]: 0.683 ± 0.18 g; Spleen [2, 9]: 0.028 ± 0.009 g; weights of the various tissues ([2]; result in words): restored to levels similar to those of the normal control group"
"CC(C)[C@H](NCC1(O)OC[C@@H](O)[C@H](O)C1O)C(=O)O (stereo partly drawn) [FV, fructose-valine]",–,–,–,–,–,–,–,–,–,–,–,–,–,–,–,significantly restored,significantly suppressed,significantly decreased,significantly decreased,significantly decreased,–
